# Experimental data as given in PubChem BioAssay (NCI).
#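 Tested at 5 concentrations; 48 h exposure; 96-well plates; endpoints linearly interpolated, else capped at highest concentration. GI50 = concentration required for 50% inhibition of growth. TGI marks complete inhibition of growth.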
# Assays:
# Experiment in all cases: NCI anticancer screen, dose series, 48 h
# K-562 leukemia = tested on: K-562 leukemia
# T-47D breast = tested on: T-47D breast
# SNB-19 CNS = tested on: SNB-19 CNS
# IGROV1 ovarian = tested on: IGROV1 ovarian
# NCI-H226 lung = tested on: NCI-H226 lung
# A498 renal = tested on: A498 renal
# PC-3 prostate = tested on: PC-3 prostate
# DU-145 prostate = tested on: DU-145 prostate
# SNB-75 CNS = tested on: SNB-75 CNS
# ACHN renal = tested on: ACHN renal
# NCI-H460 lung = tested on: NCI-H460 lung
# NCI-H522 lung = tested on: NCI-H522 lung
# BT-549 breast = tested on: BT-549 breast
# SN12C renal = tested on: SN12C renal
# HOP-62 NSCLC = tested on: HOP-62 NSCLC
# MDA-MB-231 breast = tested on: MDA-MB-231 breast
# UO-31 renal = tested on: UO-31 renal
# MDA-N = tested on: MDA-N
# HOP-92 NSCLC = tested on: HOP-92 NSCLC
# RPMI-8226 leukemia = tested on: RPMI-8226 leukemia
# HCC-2998 colon = tested on: HCC-2998 colon
# TK-10 renal = tested on: TK-10 renal
# MOLT-4 leukemia = tested on: MOLT-4 leukemia
# NCI-H23 lung = tested on: NCI-H23 lung
# A549 NSCLC = tested on: A549 NSCLC
# UACC-62 melanoma = tested on: UACC-62 melanoma
# HS 578T breast = tested on: HS 578T breast
# MALME-3M melanoma = tested on: MALME-3M melanoma
# HT29 colon = tested on: HT29 colon
# HCT-116 colon = tested on: HCT-116 colon
# SK-MEL-2 melanoma = tested on: SK-MEL-2 melanoma
# SW-620 colon = tested on: SW-620 colon
# 786-0 renal = tested on: 786-0 renal
# SF-295 CNS = tested on: SF-295 CNS
# CCRF-CEM leukemia = tested on: CCRF-CEM leukemia
# COLO 205 colon = tested on: COLO 205 colon
# EKVX NSCLC = tested on: EKVX NSCLC
# OVCAR-4 ovarian = tested on: OVCAR-4 ovarian
# KM12 colon = tested on: KM12 colon
# RXF 393 renal = tested on: RXF 393 renal
# NCI/ADR-RES ovarian = tested on: NCI/ADR-RES ovarian
# CAKI-1 renal = tested on: CAKI-1 renal
# U251 CNS = tested on: U251 CNS
# M14 melanoma = tested on: M14 melanoma
# OVCAR-3 ovarian = tested on: OVCAR-3 ovarian
# SK-MEL-28 melanoma = tested on: SK-MEL-28 melanoma
# UACC-257 melanoma = tested on: UACC-257 melanoma
# SK-OV-3 ovarian = tested on: SK-OV-3 ovarian
# OVCAR-5 ovarian = tested on: OVCAR-5 ovarian
# OVCAR-8 ovarian = tested on: OVCAR-8 ovarian
# SF-539 CNS = tested on: SF-539 CNS
# SF-268 CNS = tested on: SF-268 CNS
# MDA-MB-435 = tested on: MDA-MB-435
# MCF7 breast = tested on: MCF7 breast
# LOX IMVI melanoma = tested on: LOX IMVI melanoma
# SK-MEL-5 melanoma = tested on: SK-MEL-5 melanoma
# HCT-15 colon = tested on: HCT-15 colon
compound,measurement,setting,value
COc1ccc(C[C@H]2NC[C@H](O)[C@H]2OC(C)=O)cc1,TGI,K-562 leukemia,0.11 µM
same,TGI,T-47D breast,0.754 µM
same,TGI,SNB-19 CNS,0.289 µM
same,TGI,IGROV1 ovarian,0.153 µM
same,TGI,NCI-H226 lung,0.242 µM
same,TGI,A498 renal,0.32 µM
same,TGI,PC-3 prostate,0.49 µM
same,TGI,DU-145 prostate,0.27 µM
same,TGI,SNB-75 CNS,0.0668 µM
same,TGI,ACHN renal,0.122 µM
same,TGI,NCI-H460 lung,0.611 µM
same,TGI,NCI-H522 lung,0.118 µM
same,TGI,BT-549 breast,1.91 µM
same,TGI,SN12C renal,0.253 µM
same,TGI,HOP-62 NSCLC,0.193 µM
same,TGI,MDA-MB-231 breast,0.079 µM
same,TGI,UO-31 renal,0.181 µM
same,TGI,MDA-N,0.195 µM
same,TGI,HOP-92 NSCLC,0.186 µM
same,TGI,RPMI-8226 leukemia,0.332 µM
same,TGI,HCC-2998 colon,0.0862 µM
same,TGI,TK-10 renal,0.397 µM
same,TGI,MOLT-4 leukemia,0.0642 µM
same,TGI,NCI-H23 lung,0.52 µM
same,GI50,A549 NSCLC,0.0413 µM
same,TGI,A549 NSCLC,3.48 µM
same,TGI,UACC-62 melanoma,0.225 µM
same,TGI,HS 578T breast,0.0604 µM
same,TGI,MALME-3M melanoma,0.708 µM
same,TGI,HT29 colon,0.179 µM
same,TGI,HCT-116 colon,0.146 µM
same,TGI,SK-MEL-2 melanoma,0.398 µM
same,TGI,SW-620 colon,0.15 µM
same,TGI,786-0 renal,0.137 µM
same,TGI,SF-295 CNS,0.0641 µM
same,TGI,CCRF-CEM leukemia,0.863 µM
same,TGI,COLO 205 colon,0.0256 µM
same,TGI,EKVX NSCLC,0.344 µM
same,TGI,OVCAR-4 ovarian,0.194 µM
same,TGI,KM12 colon,0.211 µM
same,TGI,RXF 393 renal,0.399 µM
same,TGI,NCI/ADR-RES ovarian,0.369 µM
same,TGI,CAKI-1 renal,0.06 µM
same,TGI,U251 CNS,2.02 µM
same,TGI,M14 melanoma,0.068 µM
same,TGI,OVCAR-3 ovarian,0.335 µM
same,TGI,SK-MEL-28 melanoma,0.351 µM
same,TGI,UACC-257 melanoma,2.89 µM
same,TGI,SK-OV-3 ovarian,0.895 µM
same,TGI,OVCAR-5 ovarian,14.5 µM
same,TGI,OVCAR-8 ovarian,0.0897 µM
same,TGI,SF-539 CNS,0.14 µM
same,TGI,SF-268 CNS,1.03 µM
same,TGI,MDA-MB-435,0.193 µM
same,TGI,MCF7 breast,0.119 µM
same,TGI,LOX IMVI melanoma,0.0409 µM
same,GI50,SK-MEL-5 melanoma,0.0176 µM
same,TGI,SK-MEL-5 melanoma,0.0585 µM
C=C(C)C1CC2=C(O1)C(=O)c1cccc(O)c1C2=O (stereo not drawn),TGI,K-562 leukemia,0.689 µM
same,TGI,T-47D breast,3.04 µM
same,TGI,SNB-19 CNS,3.11 µM
same,TGI,IGROV1 ovarian,0.617 µM
same,TGI,NCI-H226 lung,3.46 µM
same,TGI,A498 renal,10.2 µM
same,TGI,PC-3 prostate,3.67 µM
same,TGI,DU-145 prostate,3.15 µM
same,TGI,SNB-75 CNS,3.87 µM
same,TGI,ACHN renal,3.23 µM
same,TGI,NCI-H460 lung,3.75 µM
same,TGI,NCI-H522 lung,1.73 µM
same,TGI,BT-549 breast,1.63 µM
same,TGI,SN12C renal,2.44 µM
same,TGI,HOP-62 NSCLC,2.94 µM
same,TGI,MDA-MB-231 breast,3.64 µM
same,TGI,UO-31 renal,2.84 µM
same,TGI,MDA-N,0.132 µM
same,TGI,HOP-92 NSCLC,11.5 µM
same,TGI,RPMI-8226 leukemia,1.22 µM
same,TGI,HCC-2998 colon,3.97 µM
same,TGI,TK-10 renal,5.37 µM
same,TGI,MOLT-4 leukemia,0.422 µM
same,TGI,NCI-H23 lung,0.935 µM
same,TGI,A549 NSCLC,4.9 µM
same,TGI,UACC-62 melanoma,2.18 µM
same,TGI,HS 578T breast,5.34 µM
same,TGI,MALME-3M melanoma,2.31 µM
same,TGI,HT29 colon,3.13 µM
same,TGI,SK-MEL-2 melanoma,2.68 µM
same,TGI,SW-620 colon,2.96 µM
same,TGI,786-0 renal,> 100 µM
same,TGI,SF-295 CNS,2.73 µM
same,TGI,COLO 205 colon,3.25 µM
same,TGI,EKVX NSCLC,2.52 µM
same,TGI,OVCAR-4 ovarian,0.926 µM
same,TGI,HCT-15 colon,4.36 µM
same,TGI,KM12 colon,3.27 µM
same,TGI,RXF 393 renal,2.54 µM
same,TGI,NCI/ADR-RES ovarian,2.78 µM
same,TGI,CAKI-1 renal,2.08 µM
same,TGI,U251 CNS,3.01 µM
same,TGI,M14 melanoma,2.43 µM
same,TGI,OVCAR-3 ovarian,0.924 µM
same,TGI,SK-MEL-28 melanoma,3.33 µM
same,TGI,UACC-257 melanoma,1.01 µM
same,TGI,SK-OV-3 ovarian,2.86 µM
same,TGI,OVCAR-5 ovarian,3.01 µM
same,TGI,OVCAR-8 ovarian,1.81 µM
same,TGI,SF-539 CNS,1.89 µM
same,TGI,SF-268 CNS,1.47 µM
same,TGI,MDA-MB-435,0.271 µM
same,TGI,MCF7 breast,1.96 µM
same,TGI,LOX IMVI melanoma,> 22.8 µM
same,TGI,SK-MEL-5 melanoma,0.304 µM
